This note sets out measurements from EP4813980A1, “EP300/CBP REGULATOR, AND PREPARATION METHOD THEREFOR AND USE THEREOF” (Miracure Biotechnology Limited, priority 2023, dated 2025).

One experiment deals with T1, CBP bromodomain (Homo sapiens, UniProt Q92793).
T1 construct: purchased
The experiment is described as follows: CBP AlphaLISA Assay Kit: binding of CBP bromodomain to acetylated histone substrate. Particulars: 30 min incubation with CBP and biotinylated substrate, N=2, unit inferred. As for the experimental part: The biochemical activity test of CBP preparations was detected using CBP AlphaLISA® Assay Kit. The detection principle is based on the binding of CBP bromodomain to acetylated histone substrate. The compounds were incubated with CBP and biotinylated substrate for 30 min, followed by the addition of acceptor beads for 15 min and donor beads for 15 min. Alpha counts were read, data were analyzed using Prism 7.0 and IC50 values were calculated.

The next experiment has as its target BRD4 (Homo sapiens, UniProt O60885). Nature of the experiment: BRD4 counter-assay, tabulated with the CBP AlphaLISA test. Format: binding. Particulars: unit inferred. (Bead proximity is the source of the signal in Alpha formats.)
In another experiment the test system is OPM-2 cells. The experiment is described as follows: Cell growth inhibition, CellTiter-Glo, 72 h. The note with it: Homo sapiens, 72 h culture, mean of N=2. The format is cell-based. In short, it runs like this: (§1)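 Cells seeded at 5×10^3/well in RPMI-1640 with 10% FBS, compound added next day at 0.5% DMSO final, 72 h at 37°C. CellTiter-Glo luminescence read; % inhibition normalised to 0.5% DMSO (0%) and 1% Tween 20 (100%), plotted against concentration in nM; mean ± SEM, N=2.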
(Cellular ATP, detected with luciferase, serves as a proxy for viable cell number.)

A further experiment relates to 22RV1 cells. Nature of the experiment: Cell growth inhibition, CellTiter-Glo, 72 h. The note with it: Homo sapiens, 72 h culture, mean of N=2. The format is cell-based. In short, it runs like this:
as §1

A further experiment has as its system MM1S cells. The experiment is described as follows: Cell growth inhibition, CellTiter-Glo, 72 h. The format is cell-based. The note with it: 72 h culture, mean of N=2. The procedure, abridged: as §1
In another experiment the test system is vCap cells. Nature of the experiment: Cell growth inhibition, CellTiter-Glo, 72 h. The format is cell-based. Particulars: Homo sapiens, 72 h culture, mean of N=2. In short, it runs like this: as §1

T1 sequence (Q92793 1085-1192 limits assumed): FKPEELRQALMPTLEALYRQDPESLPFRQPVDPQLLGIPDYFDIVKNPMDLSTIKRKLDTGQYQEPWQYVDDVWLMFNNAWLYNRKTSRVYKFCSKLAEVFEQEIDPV

Regarding `C=CS(=O)(=O)N[C@H]1CC[C@H](c2cc3c(c(N4CCCc5cc(-c6cnn(C)c6)c(C(F)F)cc54)c2)CN(C(C)=O)C3)CC1` [Compound 1343], the IC50 (as a rule, the midpoint of a concentration-inhibition curve) at CBP bromodomain is 7.5 nM; against BRD4, 7880 nM; with OPM-2 cells it was 8 nM; with 22RV1 cells, 205 nM; in the experiment on MM1S cells (Homo sapiens, MM1.S) it was 39 nM.
The corresponding values for `C=CS(=O)(=O)N1CCC(c2cc3c(c(N4CCCc5cc(-c6cnn(C)c6)c(C(F)F)cc54)c2)CN(C(=O)NC)CC3)CC1` [Compound 1347] are 7.5 nM, over 10000 nM, 2 nM, 155 nM and 26 nM.
Turning to `CC(=O)N1Cc2cc(C3CCN(C(=O)/C=C/CN(C)C)CC3)cc(N3CCCc4cc(-c5cnn(C)c5)c(C(F)F)cc43)c2C1` [Compound 1357], the half-inhibitory concentration (IC50) on CBP bromodomain was determined as 0.96 nM; against BRD4, 5710 nM; in the experiment with 22RV1 cells, 5420 nM; in the experiment with MM1S cells (Homo sapiens, MM1.S), 58 nM.
Regarding `CO[C@H]1CC[C@H](n2c([C@@H]3CCCC(=O)N3c3ccc(F)c(F)c3)nc3cc(-c4c(C)noc4C)ccc32)CC1` [CCS1477], the IC50 amounted to 7250 nM against BRD4; 140 nM with vCap cells; 37 nM in the experiment on OPM-2 cells; 2520 nM in the experiment on 22RV1 cells; 220 nM in the experiment on MM1S cells.
On to `C=CS(=O)(=O)N1CCC(c2cc3c(c(N4CCCc5cc(-c6cnn(C)c6)c(C(F)F)cc54)c2)CN(C(C)=O)C3)CC1` [Compound 1344], for which the IC50 at CBP bromodomain is 7 nM; at BRD4, 7920 nM; in the experiment with vCap cells it was 33 nM; in the experiment with OPM-2 cells, 15 nM; in the experiment with 22RV1 cells, 263 nM; in the experiment on MM1S cells (Homo sapiens, MM1.S), 68 nM.
Take `C=CS(=O)(=O)N[C@H]1CC[C@@H](c2cc3c(c(N4CCCc5cc(-c6cnn(C)c6)c(C(F)F)cc54)c2)CN(C(C)=O)C3)CC1` [Compound 1345, N-((1s,4s)-4-(2-acetyl-7-(7-(difluoromethyl)-6-(1-methyl-1H-pyrazol-4-yl)-3,4-dihydroquinolin-1(2H)-yl)isoindolin-5-yl)cyclohexyl)ethenesulfonamide]: the IC50 was 9.3 nM on CBP bromodomain; over 10000 nM against BRD4; 12 nM with vCap cells; 4 nM with OPM-2 cells; 48 nM in the experiment on 22RV1 cells; 15 nM with MM1S cells (Homo sapiens, MM1.S).
For `C=CC(=O)N[C@H]1CC[C@@H](c2cc3c(c(N4CCCc5cc(-c6cnn(C)c6)c(C(F)F)cc54)c2)CN(C(C)=O)C3)CC1` [Compound 1339], the IC50 on CBP bromodomain is 4.7 nM; against BRD4 it was 7430 nM; with OPM-2 cells it was 8 nM; in the experiment on 22RV1 cells, 2500 nM; in the experiment on MM1S cells (Homo sapiens, MM1.S) it was 48 nM.
